Assay results published in the supplement of paper PMC11061612.

How the values were obtained:
Assay in all cases: Bliss excess, mean over the matrix (fraction); higher = more synergy
WM793B (Melanoma) = system: WM793B (Melanoma)
Method in brief: (§1)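 After 24 hours at 37°C and 5% CO2 in 1536-well plates, cells in DMEM/F12 or RPMI plus 10% FBS received two-drug dose matrices for 72 hours. Viability came from CellTiter-Glo 2.0 luminescence and was scaled as inhibition, anchored at 0 by vehicle wells and at 1 by blank wells. Combination Emax is taken as the second-highest inhibition in the matrix, and Bliss excess as the observed combination effect less EA + EB − EA·EB, with EA and EB the single-agent effects.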

[1] = system: NCI-H2342 (Lung Adenocarcinoma)
Method in brief: as §1

SF268 (Low Grade Glioma) = system: SF268 (Low Grade Glioma)
Method in brief: as §1

[2] = system: NCI-H23 (Lung Adenocarcinoma)
Method in brief: as §1

[3] = system: PC-3_[JPC-3] (Lung Adenocarcinoma)
Method in brief: as §1

[4] = system: LXF-289 (Lung Adenocarcinoma)
Method in brief: as §1

[5] = system: SK-PN-DW (Other Solid Carcinomas)
Method in brief: as §1

[6] = system: L-1236 (Hodgkin's Lymphoma)
Method in brief: as §1

SF539 (Glioblastoma) = system: SF539 (Glioblastoma)
Method in brief: as §1

[7] = system: OVMIU (Ovarian Carcinoma)
Method in brief: as §1

[8] = system: HCT-15 (Colorectal Carcinoma)
Method in brief: as §1

[9] = system: RCM-1 (Colorectal Carcinoma)
Method in brief: as §1

[10] = system: SU-DHL-10 (B-Cell Non-Hodgkin's Lymphoma)
Method in brief: as §1

[11] = system: HSC-39 (Gastric Carcinoma)
Method in brief: as §1

IST-MES1 (Mesothelioma) = system: IST-MES1 (Mesothelioma)
Method in brief: as §1

[12] = system: RERF-GC-1B (Gastric Carcinoma)
Method in brief: as §1

WM278 (Melanoma) = system: WM278 (Melanoma)
Method in brief: as §1

GB-1 (Glioblastoma) = system: GB-1 (Glioblastoma)
Method in brief: as §1

A2058 (Melanoma) = system: A2058 (Melanoma)
Method in brief: as §1

[13] = system: 23132-87 (Gastric Carcinoma)
Method in brief: as §1

| Compound | Bliss excess (WM793B (Melanoma)) | Bliss excess [1] | Bliss excess (SF268 (Low Grade Glioma)) | Bliss excess [2] | Bliss excess [3] | Bliss excess [4] | Bliss excess [5] | Bliss excess [6] | Bliss excess (SF539 (Glioblastoma)) | Bliss excess [7] | Bliss excess [8] | Bliss excess [9] | Bliss excess [10] | Bliss excess [11] | Bliss excess (IST-MES1 (Mesothelioma)) | Bliss excess [12] | Bliss excess (WM278 (Melanoma)) | Bliss excess (GB-1 (Glioblastoma)) | Bliss excess (A2058 (Melanoma)) | Bliss excess [13] |
| --- | --- | --- | --- | --- | --- | --- | --- | --- | --- | --- | --- | --- | --- | --- | --- | --- | --- | --- | --- | --- |
| Cc1c2c(nn1C)CSCc1cc(n(C)n1)CSc1cc(c3ccccc3c1)OCCCc1c(C(=O)O)n(C)c3c-2c(Cl)ccc13 [AZD5991] + Cc1cc2ncnn2cc1Nc1ncc2c(n1)n(C1CCOCC1)c(=O)n2C [AZD7648] (first compound max 1 µM, 7x7, partner max 10 µM) | -0.024 | -0.0535 | 0.0006 | -0.0431 | -0.0306 | -0.0889 | -0.0404 | 0.0299 | 0.0057 | -0.091 | -0.0354 | -0.0149 | 0.0328 | 0.0095 | -0.0122 | -0.0085 | -0.0428 | -0.0429 | -0.067 | -0.0679 |
| Cc1c2c(nn1C)CSCc1cc(n(C)n1)CSc1cc(c3ccccc3c1)OCCCc1c(C(=O)O)n(C)c3c-2c(Cl)ccc13 [AZD5991] + C[C@@H](Nc1cc(F)cc(F)c1)c1cc(C(=O)N(C)C)cc2c(=O)cc(N3CCOCC3)oc12 [AZD8186] (first compound max 1 µM, 7x7, partner max 3 µM) | 0.0512 | -0.0027 | -0.0095 | -0.0085 | 0.0031 | -0.0127 | 0.0126 | 0.0233 | -0.0052 | -0.0181 | -0.01 | -0.0102 | 0.0239 | -0.0069 | -0.0524 | -0.0188 | 0.0096 | -0.0152 | 0.119 | -0.0603 |
| COc1nnc2ccc(N3CCC(c4ccc(OCCN5CCN(C)C(=O)[C@H]5C)cc4)CC3)nn12 [AZD5153] + CCN(CCO)CCCOc1ccc2c(Nc3cc(CC(=O)Nc4cccc(F)c4)[nH]n3)ncnc2c1 [AZD2811] (first compound max 1 µM, 7x7, partner max 1 µM) | -0.0567 | -0.01 | -0.0592 | -0.0412 | -0.0306 | 0.0227 | -0.0677 | -0.027 | -0.0184 | -0.0733 | -0.0143 | -0.03 | -0.049 | -0.006 | -0.0132 | -0.096 | -0.0654 | -0.0787 | 0.0568 | -0.0223 |
| CN(CCO)CC[C@H](CSc1ccccc1)Nc1ccc(S(=O)(=O)NC(=O)c2ccc(N3CCC([C@@H](O)c4ccccc4-c4ccc(Cl)cc4)CC3)cc2)cc1S(=O)(=O)C(F)(F)F [AZD4320] + C=CCn1c(=O)c2cnc(Nc3ccc(N4CCN(C)CC4)cc3)nc2n1-c1cccc(C(C)(C)O)n1 [AZD1775] (first compound max 1 µM, partner max 1 µM) | -0.0248 | 0 | 0.0042 | 0.0364 | -0.0114 | -0.0252 | 0.0052 | 0.0006 | -0.0518 | 0.0324 | -0.054 | -0.0586 | 0.0069 | 0.0562 | -0.0274 | 0.0515 | 0.0846 | -0.0642 | 0.0066 | 0.072 |
| Cc1c2c(nn1C)CSCc1cc(n(C)n1)CSc1cc(c3ccccc3c1)OCCCc1c(C(=O)O)n(C)c3c-2c(Cl)ccc13 [AZD5991] + CN(C)CCCOc1ccc(-c2ccc3ncc4c(c3c2)n(C2CCOCC2)c(=O)n4C)cn1 [AZD0156] (first compound max 1 µM, 7x7, partner max 1 µM) | -0.0312 | -0.016 | 0.0324 | -0.0201 | -0.0156 | 0.0472 | -0.0117 | 0.0295 | -0.0184 | -0.0328 | 0.0369 | -0.0105 | -0.0258 | -0.0201 | 0.0029 | 0.0263 | -0.0196 | 0.0075 | -0.0048 | -0.0643 |
| Cc1c2c(nn1C)CSCc1cc(n(C)n1)CSc1cc(c3ccccc3c1)OCCCc1c(C(=O)O)n(C)c3c-2c(Cl)ccc13 [AZD5991] + C1CN(CCC1(C(=O)N[C@@H](CCO)C2=CC=C(C=C2)Cl)N)C3=NC=NC4=C3C=CN4 [Capivasertib] (first compound max 1 µM, 7x7, partner max 3 µM) | 0.0045 | 0.0351 | -0.008 | -0.0276 | -0.0062 | 0.042 | 0.032 | 0.0039 | -0.0043 | 0.0023 | 0.002 | 0.0005 | -0.0047 | 0.0308 | -0.0195 | -0.0124 | -0.0498 | -0.0365 | 0.0972 | -0.0492 |
| CN(CCO)CC[C@H](CSc1ccccc1)Nc1ccc(S(=O)(=O)NC(=O)c2ccc(N3CCC([C@@H](O)c4ccccc4-c4ccc(Cl)cc4)CC3)cc2)cc1S(=O)(=O)C(F)(F)F [AZD4320] + Cn1cnc2c(F)c(Nc3ccc(Br)cc3Cl)c(C(=O)NOCCO)cc21 [Selumetinib] (first compound max 1 µM, 7x7, partner max 3 µM) | 0.0604 | – | 0.0069 | 0.0703 | 0.0339 | -0.0301 | -0.0198 | 0.0288 | 0.0176 | -0.0595 | 0.0267 | 0.0333 | 0.0912 | 0.0414 | 0.0318 | 0.022 | 0.0582 | 0.0313 | – | 0.0543 |
| NC1(C(=O)N[C@@H](CCO)c2ccc(Cl)cc2)CCN(c2ncnc3[nH]ccc23)CC1 [Capivasertib] + CCN(CCO)CCCOc1ccc2c(Nc3cc(CC(=O)Nc4cccc(F)c4)[nH]n3)ncnc2c1 [AZD2811] (first compound max 10 µM, 7x7, partner max 1 µM) | 0.002 | 0.0242 | -0.0667 | 0.0232 | -0.0168 | 0.0856 | -0.017 | -0.024 | -0.0573 | -0.0385 | -0.0021 | -0.0426 | -0.0466 | -0.0799 | -0.0427 | 0.0188 | -0.065 | -0.0143 | 0.0072 | 0.008 |
| Cc1c2c(nn1C)CSCc1cc(n(C)n1)CSc1cc(c3ccccc3c1)OCCCc1c(C(=O)O)n(C)c3c-2c(Cl)ccc13 [AZD5991] + C[C@@H]1COCCN1C2=NC(=NC(=C2)C3(CC3)[S@](=N)(=O)C)C4=C5C=CNC5=NC=C4 [AZD6738] (first compound max 1 µM, 7x7, partner max 10 µM) | 0.0503 | 0.0291 | 0.0188 | -0.0037 | 0.0547 | 0.0667 | -0.0175 | 0.104 | -0.0231 | -0.0037 | 0.0431 | -0.0371 | -0.0128 | -0.0026 | – | – | 0.0307 | 0.0116 | 0.0756 | -0.009 |
| CS(=O)(=O)CCNCc1ccc(-c2ccc3ncnc(Nc4ccc(OCc5cccc(F)c5)c(Cl)c4)c3c2)o1 [Lapatinib] + NC1(c2ccc(-c3nc4ccn5c(=O)[nH]nc5c4cc3-c3ccccc3)cc2)CCC1 [MK-2206] (first compound max 10 µM, 7x7, partner max 10 µM) | – | -0.0499 | – | -0.0481 | -0.0174 | – | 0.1 | 0.0138 | -0.0077 | 0.0659 | – | -0.0323 | – | 0.104 | 0.0433 | 0.0194 | – | – | -0.049 | – |
| Cn1cnc2c(F)c(Nc3ccc(Br)cc3Cl)c(C(=O)NOCCO)cc21 [Selumetinib] + CC(C)n1c(=O)n(C)c2cnc3cc(F)c(-c4ccc(OCCCN5CCCCC5)nc4)cc3c21 [AZD1390] (first compound max 10 µM, 7x7, partner max 0.3 µM) | -0.0211 | -0.0489 | -0.0693 | -0.0103 | -0.0445 | -0.0312 | -0.0289 | 0.0284 | -0.0232 | -0.0444 | -0.0001 | -0.0495 | -0.0183 | 0.0253 | -0.0382 | 0.0413 | -0.0352 | -0.0574 | -0.0155 | -0.0449 |
| C[C@@H](c1ccc2nccn2c1)n1nnc2ncc(-c3cnn(C)c3)nc21 [Savolitinib] + CN(CC[C@H](CSC1=CC=CC=C1)NC2=C(C=C(C=C2)S(=O)(=O)NC(=O)C3=CC=C(C=C3)N4CCC(CC4)[C@H](C5=CC=CC=C5C6=CC=C(C=C6)Cl)O)S(=O)(=O)C(F)(F)F)CCO [AZD4320] (first compound max 1 µM, 7x7, partner max 1 µM) | -0.0644 | – | -0.0491 | 0.0248 | – | -0.0203 | – | – | – | – | -0.0274 | – | -0.0067 | – | – | -0.0404 | -0.0406 | -0.0653 | 0.0035 | -0.0618 |
| CCc1c2c(nc3ccc(O)cc13)-c1cc3c(c(=O)n1C2)COC(=O)[C@]3(O)CC [SN-38] + O=C(c1cc(Cc2n[nH]c(=O)c3ccccc23)ccc1F)N1CCN(C(=O)C2CC2)CC1 [Olaparib] (first compound max 0.3 µM, 7x7, partner max 10 µM) | – | 0.0154 | – | – | 0.113 | – | 0.0708 | 0.0111 | 0.0549 | 0.0409 | 0.0754 | -0.0176 | – | -0.0724 | -0.0582 | – | 0.0486 | 0.0539 | 0.038 | 0.0174 |
| COc1nnc2ccc(N3CCC(c4ccc(OCCN5CCN(C)C(=O)[C@H]5C)cc4)CC3)nn12 [AZD5153] + CN(CC[C@H](CSC1=CC=CC=C1)NC2=C(C=C(C=C2)S(=O)(=O)NC(=O)C3=CC=C(C=C3)N4CCC(CC4)[C@H](C5=CC=CC=C5C6=CC=C(C=C6)Cl)O)S(=O)(=O)C(F)(F)F)CCO [AZD4320] (first compound max 1 µM, 7x7, partner max 1 µM) | -0.0257 | – | -0.0183 | -0.0027 | – | 0.0194 | – | – | – | – | -0.0035 | – | -0.0269 | – | – | 0.014 | 0.0168 | 0.0003 | -0.0062 | -0.0551 |
| C=CCn1c(=O)c2cnc(Nc3ccc(N4CCN(C)CC4)cc3)nc2n1-c1cccc(C(C)(C)O)n1 [AZD1775] + C[C@@H]1COCCN1C2=NC(=NC(=C2)C3(CC3)[S@](=N)(=O)C)C4=C5C=CNC5=NC=C4 [AZD6738] (first compound max 1 µM, partner max 10 µM) | -0.034 | -0.0687 | 0.0337 | 0.0238 | -0.0732 | 0.0266 | 0.0186 | -0.032 | 0.0027 | -0.0635 | 0.0483 | 0.0014 | 0.0505 | 0.0459 | -0.025 | 0.0634 | -0.0058 | – | 0.0553 | 0.083 |
